Laboratory results as given in ChEMBL document CHEMBL1909046, “DrugMatrix in vitro pharmacology data”.

Legend:
[1] = molecular target: Melanocortin receptor 5 (Homo sapiens, UniProt P33032); format: cell membranes, HEK293, Membrane; conditions: hek293; further: in other assays of this panel Not Active means under 50% inhibition at 10 µM
[2] = molecular target: T1, Neuropeptide Y receptor type 1 (Homo sapiens, UniProt P25929); format: cell membranes, Membrane; conditions: sk-n-mc; further: in other assays of this panel Not Active means under 50% inhibition at 10 µM
T1 sequence (P25929 whole entry): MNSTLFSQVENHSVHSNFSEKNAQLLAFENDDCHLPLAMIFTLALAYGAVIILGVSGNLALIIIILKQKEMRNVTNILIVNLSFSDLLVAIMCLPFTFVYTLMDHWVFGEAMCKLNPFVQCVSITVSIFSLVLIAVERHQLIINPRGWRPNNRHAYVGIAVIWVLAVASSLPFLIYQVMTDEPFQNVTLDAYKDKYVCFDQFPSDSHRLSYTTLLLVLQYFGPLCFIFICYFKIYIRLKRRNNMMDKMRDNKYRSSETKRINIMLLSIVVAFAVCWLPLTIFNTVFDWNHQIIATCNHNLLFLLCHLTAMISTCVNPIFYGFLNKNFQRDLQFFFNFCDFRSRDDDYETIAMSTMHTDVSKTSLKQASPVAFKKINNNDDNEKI

[3] = molecular target: Platelet-activating factor receptor (Homo sapiens, UniProt P25105); format: tissue-based; further: in other assays of this panel Not Active means under 50% inhibition at 10 µM
Sequence of Platelet-activating factor receptor (P25105 whole entry): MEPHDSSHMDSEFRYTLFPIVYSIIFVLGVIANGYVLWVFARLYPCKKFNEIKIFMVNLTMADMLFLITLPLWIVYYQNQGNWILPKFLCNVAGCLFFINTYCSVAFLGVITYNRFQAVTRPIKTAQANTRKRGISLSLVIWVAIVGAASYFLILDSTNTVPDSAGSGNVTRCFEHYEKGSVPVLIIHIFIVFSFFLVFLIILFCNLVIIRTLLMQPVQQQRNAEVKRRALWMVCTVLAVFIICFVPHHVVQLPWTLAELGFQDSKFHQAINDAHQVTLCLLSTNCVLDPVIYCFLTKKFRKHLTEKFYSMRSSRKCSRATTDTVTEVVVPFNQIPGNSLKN

[4] = molecular target: Delta-type opioid receptor (Homo sapiens, UniProt P41143); format: cell membranes, HEK293, Membrane; conditions: hek293; further: in other assays of this panel Not Active means under 50% inhibition at 10 µM
Sequence of Delta-type opioid receptor (P41143 whole entry): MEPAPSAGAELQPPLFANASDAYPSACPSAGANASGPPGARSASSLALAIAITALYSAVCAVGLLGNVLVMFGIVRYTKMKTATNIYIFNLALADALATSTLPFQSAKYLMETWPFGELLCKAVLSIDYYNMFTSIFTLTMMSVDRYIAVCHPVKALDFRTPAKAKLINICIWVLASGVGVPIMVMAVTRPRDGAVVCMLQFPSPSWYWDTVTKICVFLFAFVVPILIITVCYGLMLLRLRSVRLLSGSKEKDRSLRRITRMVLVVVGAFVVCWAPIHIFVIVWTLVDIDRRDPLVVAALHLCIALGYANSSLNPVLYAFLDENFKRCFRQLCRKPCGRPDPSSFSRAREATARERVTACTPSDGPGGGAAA

[5] = molecular target: T2, Cytochrome P450 2A6 (Homo sapiens, UniProt P11509); conditions: bti-tn-5b1-4; further: in other assays of this panel Not Active means under 50% inhibition at 10 µM
T2 sequence (P11509 whole entry): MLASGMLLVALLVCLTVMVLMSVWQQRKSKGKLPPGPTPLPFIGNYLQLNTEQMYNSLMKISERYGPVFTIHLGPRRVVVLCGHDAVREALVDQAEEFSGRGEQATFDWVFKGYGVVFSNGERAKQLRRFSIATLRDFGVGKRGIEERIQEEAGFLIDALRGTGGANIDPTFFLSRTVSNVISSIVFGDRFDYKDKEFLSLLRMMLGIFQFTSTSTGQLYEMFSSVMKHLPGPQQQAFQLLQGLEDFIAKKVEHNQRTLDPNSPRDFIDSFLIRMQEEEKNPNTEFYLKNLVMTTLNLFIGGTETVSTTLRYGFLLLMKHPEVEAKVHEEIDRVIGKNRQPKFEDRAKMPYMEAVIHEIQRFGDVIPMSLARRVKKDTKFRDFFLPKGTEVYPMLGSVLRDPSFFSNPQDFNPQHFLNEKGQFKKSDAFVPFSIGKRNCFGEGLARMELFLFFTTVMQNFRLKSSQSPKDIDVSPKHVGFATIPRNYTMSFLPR

[6] = DRUGMATRIX: Phorbol Ester radioligand binding (ligand: [3H] PDBu); format: cell membranes, Mus musculus, ICR, Brain, Membrane; conditions: Not Active = under 50% inhibition at 10 µM
[7] = molecular target: Estrogen receptor beta (Homo sapiens, UniProt Q92731); conditions: sf9; further: in other assays of this panel Not Active means under 50% inhibition at 10 µM
Sequence of Estrogen receptor beta (Q92731 whole entry): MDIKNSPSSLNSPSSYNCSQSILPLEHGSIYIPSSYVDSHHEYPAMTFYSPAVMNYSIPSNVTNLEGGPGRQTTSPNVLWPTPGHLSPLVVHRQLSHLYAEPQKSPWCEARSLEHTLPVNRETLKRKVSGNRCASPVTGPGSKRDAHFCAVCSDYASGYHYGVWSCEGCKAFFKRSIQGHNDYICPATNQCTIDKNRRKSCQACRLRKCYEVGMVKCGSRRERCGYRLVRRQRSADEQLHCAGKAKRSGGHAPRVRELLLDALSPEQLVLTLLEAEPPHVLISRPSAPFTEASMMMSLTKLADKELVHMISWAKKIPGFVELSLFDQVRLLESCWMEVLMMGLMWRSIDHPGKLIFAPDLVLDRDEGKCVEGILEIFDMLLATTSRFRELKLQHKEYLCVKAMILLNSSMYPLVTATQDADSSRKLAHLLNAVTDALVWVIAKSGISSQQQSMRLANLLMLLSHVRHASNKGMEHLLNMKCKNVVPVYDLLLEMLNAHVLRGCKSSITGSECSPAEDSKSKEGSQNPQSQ

[8] = molecular target: Mu-type opioid receptor (Homo sapiens, UniProt P35372); assay: DRUGMATRIX: Opiate mu (OP3, MOP) radioligand binding (ligand: [3H] Diprenorphine); format: cell membranes, CHO-K1, Membrane; conditions: cho-k1; Not Active = under 50% inhibition at 10 µM
Sequence of Mu-type opioid receptor (P35372 whole entry): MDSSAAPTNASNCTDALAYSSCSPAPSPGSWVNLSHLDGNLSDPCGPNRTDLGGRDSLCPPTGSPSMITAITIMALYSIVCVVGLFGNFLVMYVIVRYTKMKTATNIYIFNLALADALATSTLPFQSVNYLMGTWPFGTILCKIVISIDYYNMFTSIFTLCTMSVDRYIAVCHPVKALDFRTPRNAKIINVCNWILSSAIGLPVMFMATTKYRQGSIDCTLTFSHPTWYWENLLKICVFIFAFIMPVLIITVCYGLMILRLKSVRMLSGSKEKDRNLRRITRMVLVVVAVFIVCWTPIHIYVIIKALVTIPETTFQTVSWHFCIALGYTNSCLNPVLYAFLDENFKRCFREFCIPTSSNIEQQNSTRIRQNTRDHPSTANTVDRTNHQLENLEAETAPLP

Sequence of Melanocortin receptor 5 (P33032 whole entry): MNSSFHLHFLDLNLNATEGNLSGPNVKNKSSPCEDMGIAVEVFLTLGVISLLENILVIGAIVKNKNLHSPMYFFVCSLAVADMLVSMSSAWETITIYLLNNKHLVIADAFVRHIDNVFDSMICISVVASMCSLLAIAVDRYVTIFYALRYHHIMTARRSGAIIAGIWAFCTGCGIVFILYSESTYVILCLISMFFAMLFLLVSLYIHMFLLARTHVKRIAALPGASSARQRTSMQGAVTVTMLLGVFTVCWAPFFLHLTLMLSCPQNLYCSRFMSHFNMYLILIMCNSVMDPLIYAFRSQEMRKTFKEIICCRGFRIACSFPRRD

CC(C)(C)NCC(O)c1cc(Cl)c(N)c(Cl)c1 (stereo not drawn) [CLENBUTEROL]
Not Active: IC50 [1] | IC50 [2] | IC50 [3] | IC50 [4] | IC50 [5] | Ki [5] | IC50 [6] | Ki [6] | IC50 [7]

CC(C)(Oc1ccc(Cl)cc1)C(=O)O [CLOFIBRIC ACID]
Not Active: IC50 [1] | IC50 [8] | IC50 [2] | IC50 [3] | IC50 [4] | IC50 [5] | Ki [5] | IC50 [6] | Ki [6]

Clc1cccc(Cl)c1NC1=NCCN1 [CLONIDINE]
Not Active: IC50 [1] | IC50 [8] | IC50 [2] | IC50 [3] | IC50 [4] | IC50 [5] | Ki [5] | IC50 [6] | Ki [6]

CNCCCN1c2ccccc2CCc2ccccc21 [DESIPRAMINE]
Not Active: IC50 [1] | IC50 [8] | IC50 [2] | IC50 [3] | IC50 [4] | IC50 [5] | Ki [5] | IC50 [6] | Ki [6]

CC(=O)O[C@@]12CO[C@@H]1C[C@H](O)[C@@]1(C)C(=O)[C@H](O)C3=C(C)[C@@H](OC(=O)[C@H](O)[C@@H](NC(=O)OC(C)(C)C)c4ccccc4)C[C@@](O)([C@@H](OC(=O)c4ccccc4)[C@H]21)C3(C)C.O.O.O [DOCETAXEL]
Not Active: IC50 [1] | IC50 [8] | IC50 [2] | IC50 [3] | IC50 [4] | IC50 [5] | Ki [5] | IC50 [6] | Ki [6]

C[C@H]1c2cccc(O)c2C(=O)C2=C(O)[C@]3(O)C(=O)C(C(N)=O)=C(O)[C@@H](N(C)C)[C@@H]3[C@@H](O)[C@@H]21.O [DOXYCYCLINE]
Not Active: IC50 [1] | IC50 [8] | IC50 [2] | IC50 [3] | IC50 [4] | IC50 [5] | Ki [5] | IC50 [6] | Ki [6]

C[C@]12CC[C@@H]3c4ccc(O)cc4CC[C@H]3[C@@H]1CCC2=O [ESTRONE]
Not Active: IC50 [1] | IC50 [8] | IC50 [2] | IC50 [3] | IC50 [4] | IC50 [6] | Ki [6]

N=C(N)NCCN1CCCCCCC1 [GUANETHIDINE]
Not Active: IC50 [1] | IC50 [8] | IC50 [2] | IC50 [3] | IC50 [4] | IC50 [6] | Ki [6]

Nc1nc(N)nc(-c2cc(Cl)ccc2Cl)n1.O=C(O)/C=C\C(=O)O [IRSOGLADINE MALEATE]
Not Active: IC50 [1] | IC50 [8] | IC50 [2] | IC50 [3] | IC50 [4] | IC50 [5] | Ki [5] | IC50 [6] | Ki [6]

C[C@](N)(Cc1ccc(O)c(O)c1)C(=O)O [METHYLDOPA]
Not Active: IC50 [1] | IC50 [8] | IC50 [2] | IC50 [3] | IC50 [4] | IC50 [5] | Ki [5] | IC50 [6] | Ki [6]

C[C@]12CCC(=O)C=C1CC[C@@H]1[C@@H]2CC[C@@]2(C)[C@H]1CC[C@]2(C)O [METHYLTESTOSTERONE]
Not Active: IC50 [1] | IC50 [8] | IC50 [2] | IC50 [3] | IC50 [4] | IC50 [5] | Ki [5] | IC50 [6] | Ki [6]

CC(O)CO (stereo not drawn) [PROPYLENE GLYCOL]
Not Active: IC50 [1] | IC50 [8] | IC50 [2] | IC50 [3] | IC50 [4] | IC50 [5] | Ki [5] | IC50 [6] | Ki [6]

CADMIUM ACETATE
Not Active: IC50 [1] | Ki [1] | IC50 [2] | Ki [2] | IC50 [3] | Ki [3] | IC50 [4] | Ki [4] | IC50 [5] | Ki [5] | IC50 [6] | Ki [6] | IC50 [7] | Ki [7]
